Data from patent US8895568B2, “Compositions comprising substituted pteridines as agrochemicals” (Dow AgroSciences LLC, priority 2009, dated 2014).
Where two headings read alike, the source gives them in different places.

What was measured:
Assay type in all cases: in vivo
Colletotricum lagenarium = assay: Cucumber Anthracnose (COLLLA), foliar spray, percent disease control
[1] = tested on: Pseudoperonospora cubensis; assay: Cucumber Downy Mildew (PSPECU), foliar spray, percent disease control; conditions: read-out: PSPECU percent control
Cochliobolus sativus = assay: Spot Blotch of Wheat (COCHSA), foliar spray, percent disease control; conditions: Bipolaris sorokiniana, read-out: COCHSA percent control
[2] = tested on: DROSME, AEDSAE, LAPHEG, or HELIVI; assay: Insecticidal activity, active if any of DROSME, AEDSAE, LAPHEG or HELIVI was controlled at 80% or more; conditions: read-out: >80% mortality on any insect species @ 4000 ppm

Row | SMILES | pest or weed control at 200 µg/mL (Colletotricum lagenarium; foliar) | pest or weed control at 200 µg/mL ([1]; foliar) | pest or weed control at 200 µg/mL (Cochliobolus sativus; foliar) | pest or weed control at 4000 ppm [2] | pest or weed control at 200 µg/mL (Colletotricum lagenarium; foliar spray) | pest or weed control at 200 µg/mL ([1]; foliar spray) | pest or weed control at 200 µg/mL (Cochliobolus sativus; foliar spray)
1 | Cc1c(CCNc2ncnc3nccnc23)ccc(Oc2ncc(C(F)(F)F)cc2F)c1C [Compound 148] | 0 to 49% | 80 to 100% | 0 to 49% | > 80% | – | – | –
2 | Fc1cc(F)c(Oc2ccc(CCNc3ncnc4nccnc34)cc2)nc1F [Compound 150] | 0 to 49% | 80 to 100% | 0 to 49% | > 80% | – | – | –
3 | Cc1cc(Oc2cc(C(F)(F)F)ccn2)c(C)cc1CCNc1ncnc2nccnc12 [Compound 152] | 0 to 49% | 80 to 100% | 0 to 49% | > 80% | – | – | –
4 | CCOc1cc(CCNc2ncnc3nccnc23)ccc1Oc1cc(C(F)(F)F)ccn1 [Compound 153] | 0 to 49% | 80 to 100% | 0 to 49% | > 80% | – | – | –
5 | Cc1cc(CCNc2ncnc3nccnc23)ccc1Oc1cc(C#N)ccn1 [Compound 155] | 50 to 79% | 80 to 100% | 0 to 49% | > 80% | – | – | –
6 | Cc1cc(Oc2ccc(C(F)(F)F)cn2)c(C)cc1CCNc1ncnc2nccnc12 [Compound 156] | 0 to 49% | 80 to 100% | 0 to 49% | > 80% | – | – | –
7 | CCOc1cc(CCNc2ncnc3nccnc23)ccc1Oc1ccc(C(F)(F)F)cn1 [Compound 157] | 0 to 49% | 80 to 100% | 0 to 49% | > 80% | – | – | –
8 | Cc1nc2ncnc(NCCc3ccc(Oc4cc(C(F)(F)F)ccn4)cc3)c2nc1C [Compound 162] | 0 to 49% | 80 to 100% | 0 to 49% | > 80% | – | – | –
9 | Cc1nc2ncnc(NCCc3ccc(Oc4ncc(C(F)(F)F)cc4F)cc3)c2nc1C [Compound 163] | 80 to 100% | 80 to 100% | 0 to 49% | > 80% | – | – | –
10 | CC(C)OC(=O)c1cnc(Oc2ccc(CCNc3ncnc4nccnc34)cc2)c(Cl)c1 [Compound 164] | 0 to 49% | 0 to 49% | 0 to 49% | > 80% | – | – | –
11 | CC(C)(C)OC(=O)c1ccc(Oc2ccc(CCNc3ncnc4nccnc34)cc2)nc1 [Compound 165] | 0 to 49% | 80 to 100% | 0 to 49% | > 80% | – | – | –
12 | Cc1cc(CCNc2ncnc3nccnc23)ccc1Oc1c(F)cnc(C(F)(F)F)c1F [Compound 166] | 50 to 79% | 80 to 100% | 0 to 49% | > 80% | – | – | –
13 | Cc1cc(CCNc2ncnc3nccnc23)ccc1Oc1cc(C(C)(F)F)ccn1 [Compound 169] | 50 to 79% | 80 to 100% | 0 to 49% | > 80% | – | – | –
14 | COc1cc(CCNc2ncnc3nccnc23)ccc1Oc1cc(C(C)(F)F)ccn1 [Compound 170, (2-{4-[4-(1,1-difluoroethyl)-pyridin-2-yloxy]-3-methoxyphenyl}-ethyl)-pteridin-4-yl-amine] | 0 to 49% | 80 to 100% | 0 to 49% | > 80% | – | – | –
15 | FC(F)(F)c1ccnc(Oc2ccc(CCNc3ncnc4nccnc34)cc2Cl)c1 [Compound 187] | 80 to 100% | 80 to 100% | 0 to 49% | > 80% | – | – | –
16 | CCCOc1cc(CCNc2ncnc3nccnc23)ccc1Oc1cc(C(F)(F)F)ccn1 [Compound 188] | 80 to 100% | 80 to 100% | 0 to 49% | > 80% | – | – | –
17 | CC(=O)Oc1cc(CCNc2ncnc3nccnc23)ccc1Oc1cc(C(F)(F)F)ccn1 [Compound 190, Acetic acid 5-[2-(pteridin-4-ylamino)-ethyl]-2-(4-trifluoromethylpyridin-2-yloxy)-phenyl ester] | 0 to 49% | 0 to 49% | 0 to 49% | > 80% | – | – | –
18 | CC(C)(C)OC(=O)c1ccnc(Oc2ccc(CCNc3ncnc4nccnc34)cc2)c1 [Compound 192] | 80 to 100% | 80 to 100% | 0 to 49% | > 80% | – | – | –
19 | Cc1cc(Oc2cc(C(C)(F)F)ccn2)c(C)cc1CCNc1ncnc2nccnc12 [Compound 194] | 80 to 100% | 80 to 100% | 0 to 49% | > 80% | – | – | –
20 | COc1cc(C(F)(F)F)cc(Oc2ccc(CCNc3ncnc4nc(C)c(C)nc34)cc2)n1 [Compound 198] | 0 to 49% | 0 to 49% | 0 to 49% | > 80% | – | – | –
21 | CCCOc1cc(CCNc2ncnc3nccnc23)ccc1Oc1cc(C(C)(F)F)ccn1 [Compound 199] | 0 to 49% | 80 to 100% | 0 to 49% | > 80% | – | – | –
22 | Cc1nc2ncnc(NCCc3ccc(Oc4ncccc4C(F)(F)F)cc3)c2nc1C [Compound 200] | – | – | – | > 80% | 0 to 49% | 0 to 49% | 0 to 49%
23 | COC(=O)c1cnc(Oc2ccc(CCNc3ncnc4nccnc34)cc2)cc1C(F)(F)F [Compound 202] | – | – | – | > 80% | 0 to 49% | 80 to 100% | 0 to 49%
24 | CC(C)c1ccnc(Oc2ccc(CCNc3ncnc4nccnc34)cc2)c1 [Compound 203] | – | – | – | > 80% | 50 to 79% | 80 to 100% | 0 to 49%
25 | COc1cc(CCNc2ncnc3nccnc23)ccc1Oc1cc(C(C)C)ccn1 [Compound 204] | – | – | – | > 80% | 0 to 49% | 80 to 100% | 0 to 49%
26 | FC(F)(F)c1ccnc(Oc2ccc(CCNc3ncnc4nccnc34)cc2Br)c1 [Compound 212, {2-[3-bromo-4-(4-trifluoromethylpyridin-2-yloxy)-phenyl]-ethyl}-pteridin-4-yl-amine] | – | – | – | > 80% | 80 to 100% | 80 to 100% | 50 to 79%
27 | COC(=O)c1cc(CCNc2ncnc3nccnc23)ccc1Oc1cc(C(F)(F)F)ccn1 [Compound 213, 5-[2-(Pteridin-4-ylamino)-ethyl]-2-(4-trifluoromethyl-pyridin-2-yloxy)-benzoic acid, methyl ester] | – | – | – | > 80% | 0 to 49% | 80 to 100% | 0 to 49%
28 | Cc1nc(NCCc2ccc(Oc3ncc(C(F)(F)F)cc3F)cc2)c2nc(C)c(C)nc2n1 [Compound 214] | – | – | – | > 80% | 0 to 49% | 0 to 49% | 0 to 49%
